Assay type in all cases: cell-based
The subject of one assay is Phytophthora infestans. To be noted: Phytin, single compound.
The subject of a further assay is Botrytis cinerea. Put plainly: Microtest with mixtures of active compounds, grey mold (Botrci). To be noted: single compound.
The subject of assay [1] is Staphylococcus aureus ATCC 29213. As to the kind of experiment: Minimum Inhibitory Concentration (MIC) test, broth microdilution. To be noted: ATCC 29213 / DSM 2569, IsoSensitest broth, 24 hours at 37°C, no growth (OD smaller than 0.1). (In general: Broth dilution looks for growth in wells or tubes with falling amounts of substance.)
For assay [2], the system named is Pseudomonas aeruginosa ATCC 27853. The description is as above. To be noted: ATCC 27853 / DSM 1117, IsoSensitest broth, 24 hours at 37°C, no growth (OD smaller than 0.1).
A further assay deals with Pyricularia oryzae. The following applies: Pyrior, single compound.
The next assay concerns Septoria tritici. Put plainly: Microtest with mixtures of active compounds, leaf blotch on wheat (Septtr).

The structures appear in SMILES notation. In brackets after ≈: the same amount, converted by molar mass. Where two headings read alike, the source gives them in different places.

Take `Cn1cc(C(=O)Nc2ccccc2-c2cc(F)c(F)c(F)c2)c(C(F)F)n1` [Fluxapyroxad]: the Observed efficacy in the assay with Phytophthora infestans (0.063 ppm) came out at 12%; in the assay with Botrytis cinerea (0.016 ppm), 13%.

As to `CCn1cc(C(=O)O)c(=O)c2ccc(C)nc21` [Control 3, Nalidixic acid], the figures for the MIC in assay [1] and in assay [2] were 64 µg/mL (≈ 276 µM) and 1020 µg/mL (≈ 4410 µM), respectively.

As for `CC1=C(C(=O)O)N2C(=O)[C@@H](NC(=O)[C@H](N)c3ccccc3)[C@H]2SC1` [Control 1, Cephalexine], the MIC is 4 µg/mL (≈ 11.5 µM) in assay [1] and greater than 4100 µg/mL in assay [2].

In the case of `Fc1ccc([C@]2(Cn3cncn3)O[C@H]2c2ccccc2Cl)cc1` (racemic) [Epoxiconazole], the Observed efficacy with Phytophthora infestans (0.25 ppm) stood at 11%; in the assay on Botrytis cinerea (0.063 ppm), 34%; in the assay on Pyricularia oryzae (0.25 ppm), 5%.

Take `CC(=O)[O-].CCCCn1cc[n+](CCCC)c1` [C2, 1,3-Dibutylimidazolium acetate]: the MIC was 2050 µg/mL in assay [1] and 4100 µg/mL in assay [2].

Turning to `Fc1ccc([C@@]2(Cn3ncnc3S)O[C@@H]2c2ccccc2Cl)c(F)c1` (relative stereo) [Azole*, 2-[rel-(2S;3R)-3-(2-chlorophenyl)-2-(2,4-difluorophenyl)-oxiranylmethyl]-2H-[1,2,4]triazole-3-thiol], the Observed efficacy with Phytophthora infestans (4 ppm) turned out to be 20%; with Botrytis cinerea (1 ppm), 15%; in the assay with Pyricularia oryzae (16 ppm), 65%; in the assay on Septoria tritici (0.25 ppm) it was 4%; in the assay with Septoria tritici (4 ppm) it was 40%.

In the case of `COC(=O)N(OC)c1ccccc1COc1ccn(-c2ccc(Cl)cc2)n1` [Pyraclostrobin], the Observed efficacy in the assay with Phytophthora infestans (0.063 ppm) was found to be 24%; in the assay on Botrytis cinerea (0.016 ppm) it was 0%; in the assay on Septoria tritici (Septtr, single compound, 0.001 ppm), 38%.

One may read the MIC as the lowest concentration found to suppress growth. Low readings indicate a more susceptible organism, high ones a less susceptible organism.
